Data: ChEMBL document CHEMBL2203177, “Tuning the activity of a short arg-trp antimicrobial Peptide by lipidation of a C- or N-terminal lysine side-chain” (ACS Med Chem Lett, 2012)
In brackets after ≈: the same amount, converted by molar mass. Peptide text beside a SMILES is read from it. * marks the point of attachment. Octanoyl = CCCCCCCC(=O)*

What was measured:
[1] = Hemolytic activity against human RBC assessed as hemoglobin leakage at 250 ug/ml; format: ADME, cell-based, Erythrocyte; settings: human red blood cells, read-out: Activity
[2] = Selectivity index, ratio of IC50 for human GM5657 cells to IC50 for human HT29 cells; format: functional
HT-29 = assay: Cytotoxicity against human HT-29 cells assessed as inhibition of cell viability after 48 hrs by crystal violet assay; format: functional, cell-based; settings: HT-29, 48 h
MCF7 [3] = assay: Selectivity index, ratio of IC50 for human GM5657 cells to IC50 for human MCF7 cells; format: functional
Pseudomonas aeruginosa = assay: Antibacterial activity against Pseudomonas aeruginosa DSM 50071 assessed as growth inhibition after 18 hrs; format: functional; settings: DSM 50071, 18 h
Staphylococcus aureus [4] = assay: Antibacterial activity against Staphylococcus aureus ATCC 43300 assessed as growth inhibition after 18 hrs; format: functional; settings: ATCC 43300, 18 h
[5] = Ratio of IC50 for human GM5657 cells to MIC for Staphylococcus aureus DSM 20231; format: functional
[6] = Cytotoxicity against human GM5657 cells assessed as inhibition of cell viability after 48 hrs by crystal violet assay; format: cell-based; settings: GM5657, 48 h
[7] = Hemolytic activity against human RBC assessed as hemoglobin leakage at 500 ug/ml after 5 mins; format: ADME, cell-based, Erythrocyte; settings: human red blood cells, read-out: Activity
Bacillus subtilis [8] = assay: Bactericidal activity against Bacillus subtilis 168 (trpC2)2 assessed as survival rate at twice MIC concentration incubated for 15 mins measured after 18 hrs; format: functional, subsp. subtilis str. 168 (trpC2)2
MCF7 [9] = assay: Cytotoxicity against human MCF7 cells assessed as inhibition of cell viability after 48 hrs by crystal violet assay; format: functional, cell-based; settings: MCF7, 48 h
[10] = Hemolytic activity against human RBC assessed as hemoglobin leakage; format: ADME, cell-based, Erythrocyte; settings: human red blood cells
Acinetobacter baumannii = assay: Antibacterial activity against Acinetobacter baumannii DSM 30007 assessed as growth inhibition after 18 hrs; format: functional; settings: DSM 30007, 18 h
Staphylococcus aureus [11] = assay: Antibacterial activity against Staphylococcus aureus DSM 20231 assessed as growth inhibition after 18 hrs; format: functional; settings: DSM 20231, 18 h
Bacillus subtilis [12] = assay: Antibacterial activity against Bacillus subtilis 168 DSM 402 assessed as growth inhibition after 18 hrs; format: functional; settings: subsp. subtilis str. 168 DSM 402, 18 h
Escherichia coli = assay: Antibacterial activity against Escherichia coli DSM 30083 assessed as growth inhibition after 18 hrs; format: functional; settings: DSM 30083, 18 h

## CCCCCCCC(=O)NCCCC[C@H](N)C(=O)N[C@@H](CCCNC(=N)N)C(=O)N[C@@H](Cc1c[nH]c2ccccc12)C(=O)N[C@@H](CCCNC(=N)N)C(=O)N[C@@H](Cc1c[nH]c2ccccc12)C(=O)N[C@@H](CCCNC(=N)N)C(=O)N[C@@H](Cc1c[nH]c2ccccc12)C(N)=O (H-K(Octanoyl)RWRWRW-NH2)
[1]
  hemolysis at 250 ug/ml: > 50%
[2]
  Ratio IC50: 7
HT-29
  IC50: 4.3 µM
MCF7 [3]
  Ratio IC50: 7
Pseudomonas aeruginosa
  MIC: 9 µM (≈ 11.7 µg/mL)
Staphylococcus aureus [4]
  MIC: 1 µM (≈ 1.3 µg/mL)
[5]
  Ratio IC50: 15
[6]
  IC50: 32.5 µM
[7]
  hemolysis at 5 min, 500 ug/ml: 88%
Bacillus subtilis [8]
  Survival: 0.006%
MCF7 [9]
  IC50: 4.6 µM
[10]
  HC50: 114 µM
Acinetobacter baumannii
  MIC: 9 µM (≈ 11.7 µg/mL)
Staphylococcus aureus [11]
  MIC: 2 µM (≈ 2.6 µg/mL)
Bacillus subtilis [12]
  MIC: 0.6 µM (≈ 0.779 µg/mL)
Escherichia coli
  MIC: 5 µM (≈ 6.49 µg/mL)
